Experimental data as given in paper PMC10709440, “High-throughput ligand profile characterization in novel cell lines expressing seven heterologous insect olfactory receptors for the detection of volatile plant biomarkers” (Scientific Reports, 2023).

Experiments:
Drosophila OR10a = molecular target: T1, Drosophila OR10a (Drosophila melanogaster, UniProt Q9VYZ1); test: cell-based; parameters: GCaMP6 calcium fluorescence in stable HEK293 OR+ORCO lines; peak dF normalised to 50 uM VUAA1 (=1); details: HEK293; relative to 50 uM VUAA1 response; below 0.05 set to 0; read-out: % activation
T1 construct: expressed in transfected cells
T1 sequence (Q9VYZ1 1-406): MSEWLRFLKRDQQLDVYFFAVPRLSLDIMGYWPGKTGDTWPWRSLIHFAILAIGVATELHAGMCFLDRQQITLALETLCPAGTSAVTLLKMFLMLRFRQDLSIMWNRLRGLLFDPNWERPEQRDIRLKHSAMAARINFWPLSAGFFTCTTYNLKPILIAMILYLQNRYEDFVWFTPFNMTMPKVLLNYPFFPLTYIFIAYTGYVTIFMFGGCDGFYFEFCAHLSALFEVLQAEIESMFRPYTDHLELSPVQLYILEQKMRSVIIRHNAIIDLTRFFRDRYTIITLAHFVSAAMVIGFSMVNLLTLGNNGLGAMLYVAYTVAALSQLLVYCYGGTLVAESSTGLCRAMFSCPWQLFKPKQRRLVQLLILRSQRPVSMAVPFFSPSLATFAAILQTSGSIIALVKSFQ
T1 sequence (Q9VNB5 1-486 partner): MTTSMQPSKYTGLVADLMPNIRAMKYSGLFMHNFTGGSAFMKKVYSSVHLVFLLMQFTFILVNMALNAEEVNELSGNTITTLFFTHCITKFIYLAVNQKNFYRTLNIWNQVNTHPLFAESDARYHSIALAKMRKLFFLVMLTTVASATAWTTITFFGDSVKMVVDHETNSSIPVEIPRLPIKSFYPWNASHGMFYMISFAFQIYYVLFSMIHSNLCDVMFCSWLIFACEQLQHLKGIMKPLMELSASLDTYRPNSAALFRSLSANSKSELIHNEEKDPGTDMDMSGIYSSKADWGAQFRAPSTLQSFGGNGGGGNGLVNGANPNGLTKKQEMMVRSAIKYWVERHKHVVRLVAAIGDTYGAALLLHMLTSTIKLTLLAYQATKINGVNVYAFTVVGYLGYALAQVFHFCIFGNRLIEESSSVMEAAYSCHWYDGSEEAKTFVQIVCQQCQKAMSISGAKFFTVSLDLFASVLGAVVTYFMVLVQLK
Procedure: (§1) Twelve thousand to 18,000 cells were plated into each well of a black wall, transparent bottom 384-well microplate (Greiner) 48 h or 72 h before the measurements and were simultaneously treated with 1 μg/mL doxycycline. Typically, three columns were filled with one OR expressing cell line, each row was treated with the same compound (three technical replicates for each OR), and each responsive VOC-OR combination was measured at least three times on different days. The plate has 24 columns, thus we could record responses in up to eight different cell lines in each plate. On the day of the experiment, the growth medium was replaced with 20 µL assay buffer/well (140 mM NaCl, 5 mM KCl, 2 mM CaCl2, 1 mM MgCl2, 5 mM HEPES-Na, 20 mM glucose, pH 7.3, 340 mOsm). […] Baseline fluorescence (F0) was recorded for 5 s, after which 7 µL VOC buffer (140 mM NaCl, 5 mM KCl, 2 mM CaCl2, 1 mM MgCl2, 5 mM HEPES-Na, 31 mM glucose, 0.1% DMSO, pH 7.3, 340 mOsm) was injected into each well in one row and the fluorescence response was recorded for an additional 30 s, at a rate of one read/sec. VOC solutions (VOC buffer with 4× concentration of the final measured VOC concentration, 9 µL/well was injected) were measured on the same wells in a second round with the same protocol. Each individual concentration of a specific VOC sample was recorded in three wells for the same cell line on the same microplate. The raw data were exported in xls file format, F0 and FMAX values, and the fluorescence intensity changes (∆F) were calculated in Excel (Microsoft) (Supplementary file Data summary.xlsx) using the following equation: ΔF=FMAX-F0/F0 (see also Fig. 1C). On each plate, we recorded the response of each cell line to 50 µM VUAA1. The average of these ∆F values of each cell line were used to calculate the VUAA1-normalized values for the rest of the plate, by dividing VOC response ∆F values by the average VUAA1 response ∆F value of the corresponding OR cell line. Each VOC-OR combination was measured three times as tec The recorded FMAX, F0, ∆F, VUAA1-normalized ∆F values, as well as the OR name, the name of the tested sample, and the final concentration for each well were copied into supplementary file Data summary.xlsx, that was used to summarize all the plates recorded. Here, the averages of the measurements were calculated for each receptor-VOC-concentration combination. […] Each VOC was measured at 1, 10, and 100 µM final concentration on each receptor. VUAA1-normalized response was calculated as described in methods. Values are averages of at least three biological replicates for responsive combinations and two for the non-responsive combinations. The chemical structures of the strong and medium ligands are shown for each cell line. Heat map: white-green colors correspond to the lowest-highest values measured for each cell line.

Drosophila OR98a = molecular target: T2, Drosophila OR98a (Drosophila melanogaster, UniProt Q9VAZ3); test: cell-based; parameters: GCaMP6 calcium fluorescence in stable HEK293 OR+ORCO lines; peak dF normalised to 50 uM VUAA1 (=1); details: HEK293; relative to 50 uM VUAA1 response; below 0.05 set to 0; read-out: % activation
T2 construct: expressed in transfected cells
T2 sequence (Q9VAZ3 1-397): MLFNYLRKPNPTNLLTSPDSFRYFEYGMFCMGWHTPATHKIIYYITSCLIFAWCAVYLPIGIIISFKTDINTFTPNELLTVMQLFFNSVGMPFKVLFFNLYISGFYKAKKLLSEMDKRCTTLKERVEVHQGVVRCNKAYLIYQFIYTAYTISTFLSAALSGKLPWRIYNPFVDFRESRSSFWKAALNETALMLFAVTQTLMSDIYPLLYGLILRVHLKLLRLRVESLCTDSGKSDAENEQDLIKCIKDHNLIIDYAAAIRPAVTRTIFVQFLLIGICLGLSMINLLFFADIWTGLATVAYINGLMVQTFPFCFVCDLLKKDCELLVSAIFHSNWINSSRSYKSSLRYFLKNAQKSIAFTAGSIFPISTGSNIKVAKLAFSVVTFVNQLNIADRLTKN
T2 sequence (Q9VNB5 1-486 partner): T1 sequence (Q9VNB5 1-486 partner)
Procedure: as §1

Work on `CC/C=C/CCO` [e3-hexenol] yielded an activity at 1 µM (Drosophila OR10a) of 0%, an activity at 10 µM (Drosophila OR10a) of 0% and an activity at 100 µM (Drosophila OR10a) of 7.4%. For the same molecule, the activity at 1 µM (Drosophila OR98a) was 0%, the activity at 10 µM (Drosophila OR98a) was 0% and the activity at 100 µM (Drosophila OR98a) was 0%.
